Earlier results as cited in US20220346436A1, “ORALLY DISSOLVING FILMS” (NICOVENTURES TRADING LIMITED, priority 2021, published 2022).

Experiments:
[1] = water / aqueous environment (e.g., saliva)
[2] = when isolated; isomerises to trans-bixin

solubility [1] | chemical stability [2] | Compound | logP value
water soluble |  | CC(/C=C/C=C(C)/C=C/C(=O)O)=C\C=C\C=C(C)\C=C\C=C(C)\C=C\C(=O)O (stereo in doubt) [norbixin, (2E,4E,6E,8E,10E,12E,14E,16E,18E)-4,8,13,17-tetramethylicosa-2,4,6,8,10,12,14,16,18-nonaenedioic acid] | 
insoluble in water | chemically unstable when isolated | COC(=O)/C=C/C(C)=C\C=C\C(C)=C\C=C\C=C(C)\C=C\C=C(C)\C=C\C(=O)O [bixin, (2E,4E,6E,8E,10E,12E,14E,16Z,18E)-20-methoxy-4,8,13,17-tetramethyl-20-oxoicosa-2,4,6,8,10,12,14,16,18-nonaenoic acid] | 

Compound | solubility [1] | chemical stability [2] | logP value
C=C(C)[C@@H]1CCC(C)=C[C@H]1c1c(O)cc(CCCCC)cc1O [CBD, cannabidiol, reference compound] | insoluble in an aqueous environment |  | about 6.5
